Results as given in patent US9499823B2, “Constructs expressing chimeric receptors and use thereof for the controlled activation of defence response to pathogens in plants” (priority 2009, dated 2016).

Tests used:
[1] = test system: agroinfiltrated Arabidopsis thaliana Col-0 leaves; assay: Receptor internalization: decrease of GFP fluorescence by confocal microscopy in agroinfiltrated Arabidopsis Col-0 leaves; type: cell-based; conditions: for decrease of plasma membrane-associated fluorescence signal: explants at 2 dpi; for fluorescence variation upon treatment with elfl8: 10 μM elfl8, 30 min, EFR up to 1 mM elicitor (data not shown); for fluorescence variation upon treatment with OGs: up to 30 min, no EDTA; for decrease of fluorescence from the cell membrane: OGs 100 μg/ml 30 min pre-stimulation, then 5 mM EDTA
Description: PCR templates are shown in bold. Primers listed in Table 1 are shown in capital letters. Stable transgenic lines were generated using the standard A. tumefaciens-mediated gene transfer procedure of inflorescence infiltration (Bent et al., 2006). Independent transformed plant pools were kept separate for the selection of independent transgenic lines based on their phosphinotrycin resistance and leaves GFP fluorescence. Tobacco and Arabidopsis transient transgenic lines were prepared by infiltrating with Agrobacterium tumefaciens carrying the individual constructs, as described by Reca (2008).
The GFP-dependent fluorescence was monitored from 2 to 4 days post infection in cells of the lower epidermis. Pieces of leaf were randomly cut from the infected area and mounted in water or supplemented with elicitors for microscopic observations. Flg22 and elfl8 were used at 10 μM while oligosaccharides were used at 100 μg/mL. Materials were analyzed using a Leica DM IRE epifluorescence microscope equipped with a digital cooled camera (DFC350FX R2; Leica). GFP fluorescence was excited with a 488-nm laser line, and emitted fluorescence was collected at 543-nm. The Leica Confocal Software and Adobe Photoshop 5.0 were used for post-acquisition image processing. All samples were imaged with the 40× or 100× oil objectives. Pictures were taken in Kahlman frame giving an average of 16 scans for the dynamics of internalization and 4 scans for the cellular localizations. […]
The dynamics of fluorescence localization upon treatment with elicitors was then studied. Whereas endocytosis of surface receptors upon ligand binding often occurs in animals (Warren and Landgraf 2006), this mechanism in plants has emerged only recently (Geldner & Robatzek 2008) and, so far, FLS2 is the only receptor involved in plant immunity shown to undergo endocytosis upon the specific stimulation with flg22 (Robatzek et al., 2006). The authors tested the effect of flg22 and elf 18, i.e. the peptides specifically recognized by FLS2 and EFR respectively, and oligogalacturonides with a degree of polymerization between 10 and 16 (OGs), which act as general elicitors of defense responses in several plants. Explants from agroinfiltrated Arabidopsis leaves at 2 dpi were treated with elicitors and then subjected to confocal microscopy analysis. […] Instead, when eJMC-expressing explants were stimulated with flg22, the fluorescent signal decreased by 25% and 40% after 20 min and 30 min, respectively (FIG. 3B).
The first chimeric receptor, indicated as WEG, comprised the WAK1 ectodomain fused to the TM-iJM-kinase portion of EFR and was designed to test the ability of the WAK1 ectodomain to perceive OGs and transmit the signal inside the cell. […] Both WEG and EWAK as well as WAK1 were fused to GFP and used in agroinfiltration experiments (FIG. 5A). […] Western-blot analysis using GFP-specific antibodies on proteins from IWF and microsomal fractions prepared from infiltrated leaves confirmed the plasma membrane localization of both fluorescent chimeras (FIG. 5D). The effect of OGs on the internalization of WEG was followed in agroinfiltrated Arabidopsis Col-0 leaves. […] This might be due to the inability of WEG to uncouple its ectodomain from pectins, since it is known that WAK1 strongly binds to pectin and only denaturing treatments allow its separation from cell wall (He et al., 1996). On the other hand, affinity studies have shown that WAK1 interact with cell wall pectins that are in a Ca^2+-induced conformation (i.e. the structures called “egg boxes”) and that the interaction is disrupted by adding a chelating agent such as EDTA (Decreux et al., 2005; Cabrera et al., 2008). The authors therefore tested whether OG-induced internalization of WEG occurred in the presence of 5 mM EDTA. WEG-expressing agroinfiltrated leaves were syringe-infiltrated with OGs and after 30 min the tissues were mounted in the presence of EDTA for confocal microscopy analysis. […]

[2] = test system: agroinfiltrated leaves of N. tabacum ecotype SR1; assay: Receptor internalization in agroinfiltrated tobacco leaves; type: cell-based, Nicotiana tabacum
Description: E) Relative variation of fluorescence in agroinfiltrated tobacco leaves expressing EFR, FLS2, eJMC and TMC and treated with 10 μM elfl8 or 10 μM flg22 for 30 min.
The GFP-dependent fluorescence was monitored from 2 to 4 days post infection in cells of the lower epidermis. Pieces of leaf were randomly cut from the infected area and mounted in water or supplemented with elicitors for microscopic observations. Flg22 and elfl8 were used at 10 μM while oligosaccharides were used at 100 μg/mL. Materials were analyzed using a Leica DM IRE epifluorescence microscope equipped with a digital cooled camera (DFC350FX R2; Leica). GFP fluorescence was excited with a 488-nm laser line, and emitted fluorescence was collected at 543-nm. The Leica Confocal Software and Adobe Photoshop 5.0 were used for post-acquisition image processing. All samples were imaged with the 40× or 100× oil objectives. Pictures were taken in Kahlman frame giving an average of 16 scans for the dynamics of internalization and 4 scans for the cellular localizations.
The behaviour of TMC and eJMC upon treatment with flg22 and elfl8 was also analysed in agroinfiltrated leaves of N. tabacum ecotype SR1 and compared to that of EFR and FLS2. […] Instead, in the eJMC expressing plants fluorescence decreased within 10-30 min after stimulation with flg22, at an extent similar to that observed in Arabidopsis, i.e. by 25% and 35% after 20 min and 30 min, respectively (FIG. 3E).

[3] = 10 μM flg22, after 20 min of stimulation
[4] = 10 μM flg22, after 30 min of stimulation

## FLS2 [reference compound]
[1]; [3]
  decrease of plasma membrane-associated fluorescence signal: 15%
[1]; [4]
  decrease of plasma membrane-associated fluorescence signal: 30%
[1]; 100 μg/ml OGs, 5 mM EDTA
  decrease of fluorescence in the presence of EDTA upon stimulation with OGs: No decrease of fluorescence
[2]; 10 μM flg22, 30 min
  internalization after stimulation with flg22: Neither FLS2 nor TMC underwent internalization

## eJMC: chimera (Arg806FLS2-Val650EFR): LRR and eJM domains of FLS2 fused upstream of TM, iJM and kinase domains of EFR, GFP-fused
[1]
  fluorescence variation upon treatment with elfl8: did not induce any significant fluorescence variation
[1]; [3]
  decrease of plasma membrane-associated fluorescence signal: 25%
[1]; [4]
  decrease of plasma membrane-associated fluorescence signal: 40%
[1]; 100 μg/ml OGs
  fluorescence variation upon treatment with OGs: did not induce any significant fluorescence variation
[2]; 10 μM flg22, after 20 min
  fluorescence decrease after stimulation with flg22: 25%
[2]; 10 μM flg22, after 30 min
  fluorescence decrease after stimulation with flg22: 35%

B1: EFR: Arabidopsis LRR receptor kinase Elongation Factor Tu Receptor (AT5G20480); GFP-fused control (protein)
chain: RFSNETDMQALLEFKSQVSENNKREVLASWNHSSPFCNWIGVTCGRRRERVISLNLGGFKLTGVISPSIGNLSFLRLLNLADNSFGSTIPQKVGRLFRLQYLNMSYNLLEGRIPSSLSNCSRLSTVDLSSNHLGHGVPSELGSLSKLAILDLSKNNLTGNFPASLGNLTSLQKLDFAYNQMRGEIPDEVARLTQMVFFQIALNSFSGGFPPALYNISSLESLSLADNSFSGNLRADFGYLLPNLRRLLLGTNQFTGAIPKTLANISSLERFDISSNYLSGSIPLSFGKLRNLWWLGIRNNSLGNNSSSGLEFIGAVANCTQLEYLDVGYNRLGGELPASIANLSTTLTSLFLGQNLISGTIPHDIGNLVSLQELSLETNMLSGELPVSFGKLLNLQVVDLYSNAISGEIPSYFGNMTRLQKLHLNSNSFHGRIPQSLGRCRYLLDLWMDTNRLNGTIPQEILQIPSLAYIDLSNNFLTGHFPEEVGKLELLVGLGASYNKLSGKMPQAIGGCLSMEFLFMQGNSFDGAIPDISRLVSLKNVDFSNNNLSGRIPRYLASLPSLRNLNLSMNKFEGRVPTTGVFRNATAVSVFGNTNICGGVREMQLKPCIVQASPRKRKPLSVRKKVVSGICIGIASLLLIIIVASLCWFMKRKKKNNASDGNPSDSTTLGMFHEKVSYEELHSATSRFSSTNLIGSGNFGNVFKGLLGPENKLVAVKVLNLLKHGATKSFMAECETFKGIRHRNLVKLITVCSSLDSEGNDFRALVYEFMPKGSLDMWLQLEDLERVNDHSRSLTPAEKLNIAIDVASALEYLHVHCHDPVAHCDIKPSNILLDDDLTAHVSDFGLAQLLYKYDRESFLNQFSSAGVRGTIGYAAPEYGMGGQPSIQGDVYSFGILLLEMFSGKKPTDESFAGDYNLHSYTKSILSGCTSSGGSNAIDEGLRLVLQVGIKCSEEYPRDRMRTDEAVRELISIRSKFFSSKTTITESPRDAPQSSPQEWMLNTDMHTM
[1]
  fluorescence variation upon treatment with elfl8: no significant decrease of fluorescence
[2]; 10 μM elfl8, 30 min
  internalization response upon stimulation with elfl8: no response

B2: WEG: chimeric receptor: WAK1 ectodomain fused to the TM-iJM-kinase portion of EFR, GFP-fused (protein)
chain: QHQPGENCQNKCGNITIEYPFGISSGCYYPGNESFSITCKEDRPHVLSDIEVANFNHSGQLQVLLNRSSTCYDEQGKKTEEDSSFTLENLSLSANNKLTAVGCNALSLLDTFGMQNYSTACLSLCDSPPEADGECNGRGCCRVDVSAPLDSYTFETTSGRIKHMTSFHDFSPCTYAFLVEDDKFNFSSTEDLLNLRNVMRFPVLLDWSVGNQTCEQVGSTSICGGNSTCLDSTPRNGYICRCNEGFDGNPYLSAGCQDVNECTTSSTIHRHNCSDPKTCRNKVGGFYCKCQSGYRLDTTTMSCKRKEVVSGICIGIASLLLIIIVASLCWFMKRKKKNNASDGNPSDSTTLGMFHEKVSYEELHSATSRFSSTNLIGSGNFGNVFKGLLGPENKLVAVKVLNLLKHGATKSFMAECETFKGIRHRNLVKLITVCSSLDSEGNDFRALVYEFMPKGSLDMWLQLEDLERVNDHSRSLTPAEKLNIAIDVASALEYLHVHCHDPVAHCDIKPSNILLDDDLTAHVSDFGLAQLLYKYDRESFLNQFSSAGVRGTIGYAAPEYGMGGQPSIQGDVYSFGILLLEMFSGKKPTDESFAGDYNLHSYTKSILSGCTSSGGSNAIDEGLRLVLQVGIKCSEEYPRDRMRTDEAVRELISIRSKFFSSKTTITESPRDAPQSSPQEWMLNTDMHTM
modifications: left off: large carriers
[1]; 10 μM flg22, 5 mM EDTA
  decrease of fluorescence in the presence of EDTA upon stimulation with flg22: No decrease of fluorescence
[1]; 100 μg/mL OMs, EDTA
  internalization in the presence of EDTA upon stimulation with oligomannuronides (OMs): did not occur
[1]; 100 μg/ml 3-6 OGs, EDTA
  internalization in the presence of EDTA upon stimulation with 3-6 OGs: did not occur
[1]; 100 μg/ml OGs
  fluorescence variation upon treatment with OGs: No decrease of the plasma membrane-associated fluorescence
[1]; after 20 min
  decrease of fluorescence from the cell membrane: 15%
[1]; after 30 min
  decrease of fluorescence from the cell membrane: 25%
